From publication PMC6527550, “Discovery of processive catalysis by an exo-hydrolase with a pocket-shaped active site” (Nature Communications, 2019)
Like-named read-outs stand apart in the source and are kept apart here.

How the values were obtained:
native HvExoI = native HvExoI (Hordeum vulgare, UniProt Q9XEI3); experiment: Inhibition kinetics (Ki) with 4-nitrophenyl β-D-glucopyranoside substrate; assay type: biochemical, barley (Hordeum vulgare); settings: for ΔG: calculated from Ki; for ΔG / Ki: native HvExoI; for Ki: inhibition kinetics, 4-nitrophenyl β-D-glucopyranoside substrate, 30 °C, pH 5.25
Method: Ki values of deoxy-glucose and alkyl β-D-glucoside derivatives, and G2SG-OMe with native HvExoI were derived from hydrolytic rates. Enzyme inactivation was monitored at 30 °C by incubating […] of the enzyme in 100 mM sodium acetate buffer, pH 5.25, containing 0.8–6.6 mM 4NPGlc as a substrate, 160 μg/ml BSA, and 3dGlc, 4dGlc, octyl-O-Glc, octyl-S-Glc and G2SG-OMe. Each inhibitor was tested at six concentrations at 0.4–3 times the Ki values in duplicate. We used the v = Vmax S / [KM × (1 + I/Ki) + S] equation to calculate Ki constant; Ki is defined as a dissociation constant of the enzyme-inhibitor complex. The enzyme activity was monitored at 410 nm and Dixon plots were used to determine Ki under the pseudo-first-order rate limiting conditions by a non-linear regression analysis, as described previously.

recombinant HvExoI = recombinant HvExoI (Hordeum vulgare, UniProt Q9XEI3); experiment: Steady-state affinity binding by Surface Plasmon Resonance; parameters: species or system barley (Hordeum vulgare); settings: for ΔG: calculated from KD
Method: Interaction between recombinant HvExoI and analytes Glc (molecular mass 180.2 g), G6SG-OMe (372.4 g) and PEG (n = 5–10); (380–420 g) were performed using Surface Plasmon Resonance (SPR) at 25 °C using the Biacore X100 V2.0.1 instrument (GE Healthcare, USA) equipped with the plus package. Purified recombinant HvExoI at 99% homogeneity (detected by SDS-PAGE) was covalently attached to a CM5 chip (GE Healthcare) in 10 mM sodium acetate buffer, pH 5.0. The carboxymethyl groups present on the dextran layer of the CM5 chip were activated with 1-ethyl-3-(3-dimethylaminopropyl) carbodiimide hydrochloride (EDC) and N-hydroxysuccinimide (NHS) (GE Healthcare). Any unoccupied reactive sites were blocked by a 7 min injection of 1 M ethanolamine hydrochloride-NaOH, pH 8.5. A ligand density of ~15.000 RU of recombinant HvExoI was achieved. Due to the fast rate constants of interactions, it was impossible to obtain individual rate constants ka and kd. […] For each interaction serial dilutions of analytes covering the 10 · KD − 0.1 · KD concentration ranges were prepared in 10 mM HEPES-NaOH buffer, pH 7.4 with 150 mM NaCl. Samples were injected onto the surface of a chip at a rate of 30 µl/min for 90 s, after which the formed enzyme/analyte complexes could dissociate for 90 s. As all analytes dissociated completely from the surface of the recombinant enzyme immobilised on a chip, no regeneration steps were needed. All responses were double referenced using a blank-immobilised reference surface (NHS + EDC-activated/deactivated) and a series of blank injections conducted to account for the system and injection artefacts. For each analyte at least one concentration was injected in duplicate. Triplicate experiments were performed, and the double-referenced data were globally fitted using a 1:1 equilibrium interaction model and the Biacore T200 v2.0 analysis software (GE Healthcare). Steady-state affinity binding constants KD (Supplementary Fig. 3) were calculated 30 s after the onset of injections using a 5 s window in an average response in the fit.

recombinant HvExoI, sequence (Q9XEI3 entry or part of it): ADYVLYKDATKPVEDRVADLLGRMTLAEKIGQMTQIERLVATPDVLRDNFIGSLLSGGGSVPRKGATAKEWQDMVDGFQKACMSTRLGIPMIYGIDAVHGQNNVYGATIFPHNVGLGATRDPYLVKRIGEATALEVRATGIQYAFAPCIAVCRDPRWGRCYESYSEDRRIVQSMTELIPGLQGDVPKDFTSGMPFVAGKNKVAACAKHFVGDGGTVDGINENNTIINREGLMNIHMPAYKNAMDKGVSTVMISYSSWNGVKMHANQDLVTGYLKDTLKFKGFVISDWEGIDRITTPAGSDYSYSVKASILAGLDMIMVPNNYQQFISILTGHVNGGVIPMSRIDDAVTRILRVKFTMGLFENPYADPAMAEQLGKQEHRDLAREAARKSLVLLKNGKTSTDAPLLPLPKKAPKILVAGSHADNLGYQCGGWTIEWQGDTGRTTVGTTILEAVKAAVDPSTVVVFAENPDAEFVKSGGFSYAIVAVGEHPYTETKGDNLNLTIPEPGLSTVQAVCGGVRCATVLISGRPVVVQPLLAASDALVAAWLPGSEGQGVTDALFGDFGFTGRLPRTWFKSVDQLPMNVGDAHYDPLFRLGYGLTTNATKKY
native HvExoI, sequence (Q9XEI3 entry or part of it): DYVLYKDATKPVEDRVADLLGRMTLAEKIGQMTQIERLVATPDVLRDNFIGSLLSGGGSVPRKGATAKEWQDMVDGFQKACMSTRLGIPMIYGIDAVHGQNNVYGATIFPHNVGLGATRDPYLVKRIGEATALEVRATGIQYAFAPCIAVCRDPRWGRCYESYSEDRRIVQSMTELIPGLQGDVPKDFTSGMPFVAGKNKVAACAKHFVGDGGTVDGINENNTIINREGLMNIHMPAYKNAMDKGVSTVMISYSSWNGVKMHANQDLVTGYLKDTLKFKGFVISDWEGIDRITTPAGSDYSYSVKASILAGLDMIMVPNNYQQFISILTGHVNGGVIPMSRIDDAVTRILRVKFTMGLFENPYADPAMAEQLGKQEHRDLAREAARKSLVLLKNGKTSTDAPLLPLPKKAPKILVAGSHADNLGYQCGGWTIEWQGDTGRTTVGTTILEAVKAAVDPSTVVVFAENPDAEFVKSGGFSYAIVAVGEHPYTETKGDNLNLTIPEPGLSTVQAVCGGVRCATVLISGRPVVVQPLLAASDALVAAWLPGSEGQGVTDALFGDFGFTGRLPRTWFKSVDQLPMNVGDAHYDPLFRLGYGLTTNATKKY

| SMILES | ΔG (native HvExoI) [kcal/mol] | Ki (native HvExoI) [µM] | fold weaker binding than G6SG-OMe (native HvExoI; Ki of G2SG-OMe compared with KD of G6SG-OMe) | Kd (recombinant HvExoI; steady-state affinity, Surface Plasmon Resonance, recombinant HvExoI, 25 °C, read-out: KD) [µM] | Kd (recombinant HvExoI) [µM] | ΔG (recombinant HvExoI; recombinant HvExoI) [kcal/mol] |
| --- | --- | --- | --- | --- | --- | --- |
| OC[C@H]1OC(O)[C@H](O)[C@@H](O)[C@@H]1O (stereo partly drawn) [Glc] |  |  |  |  | 160 | -5.19 |
| O=C[C@H](O)[C@@H](O)C[C@H](O)CO [4dGlc, 4-deoxy-glucose] | -2.82 | 9400 |  |  |  |  |
| CO[C@@H]1O[C@H](CO)[C@@H](O)[C@H](O)[C@H]1S[C@@H]1O[C@H](CO)[C@@H](O)[C@H](O)[C@H]1O [G2SG-OMe, methyl 2-S-β-D-glucopyranosyl-2-thio-β-D-glucopyranoside] | -3.61 | 2550 | about 320 fold |  |  |  |
| O=C[C@H](O)C[C@H](O)[C@H](O)CO [3dGlc, 3-deoxy-glucose] | -2.8 | 9800 |  |  |  |  |
| CO[C@@H]1O[C@H](CS[C@@H]2O[C@H](CO)[C@@H](O)[C@H](O)[C@H]2O)[C@@H](O)[C@H](O)[C@H]1O [G6SG-OMe, methyl 6-S-β-D-glucopyranosyl-6-thio-β-D-glucopyranoside] |  |  |  | 8 |  | -6.96 |

Continued, in another order:

| ΔG (native HvExoI) [kcal/mol] | Ki (native HvExoI) [µM] | fold weaker binding than G6SG-OMe (native HvExoI; Ki of G2SG-OMe compared with KD of G6SG-OMe) | Kd (recombinant HvExoI; steady-state affinity, Surface Plasmon Resonance, recombinant HvExoI, 25 °C, read-out: KD) [µM] | SMILES | Kd (recombinant HvExoI) [µM] | ΔG (recombinant HvExoI; recombinant HvExoI) [kcal/mol] |
| --- | --- | --- | --- | --- | --- | --- |
| -4.11 | 1100 |  |  | CCCCCCCCS[C@@H]1O[C@H](CO)[C@@H](O)[C@H](O)[C@H]1O [Octyl-S-Glc, n-octyl 1-thio-β-D-glucopyranoside] |  |  |
| -5.4 | 130 |  |  | CCCCCCCCO[C@@H]1O[C@H](CO)[C@@H](O)[C@H](O)[C@H]1O [Octyl-O-Glc, n-octyl β-D-glucopyranoside] |  |  |
